From patent US10046032B2, “Use of insulin for promoting gastric emptying” (NUTRINIA LTD., priority 2016, dated 2018)
“And” between values parts separate entries of the source, which are not always exact repeats. Equal entries are not always repeated.

What was measured:
preterm infants [1] = experiment: Twin pair study: days until gastric residuals fall, insulin-enriched preterm formula vs placebo; format: in vivo, human; conditions: twin pairs
Text: (§1) Evaluation of gastric residuals (GR) is used in neonatal intensive care units to measure the volume of milk remaining in the stomach at a variable time after a feeding, and as an indicator of gastric emptying (GE).
(§2) 33 preterm infants, aged up to 7 days old, born between 26-33 weeks of pregnancy, weighing over 750 grams, who are free from high index suspicion for infection showing stable condition were enrolled into this study.
(§3) The study products included the insulin composition disclosed herein and placebo. The insulin composition is intended to be mixed with 90 ml ready to feed (RTF) preterm infant formula (manufacturer: Nestle Germany, importer: Materna Laboratories, Israel). Once the insulin is added to the formula, the formula has the concentration of 400 μU Insulin/ml formula.
(§4) Standard feeding bottles and nipples were used.
(§5) The gastric residual amount was measured after every meal.
Twin pairs, treated with insulin as described above, were examined for number of days until gastric residual measurements reached less than 0 ml/kg body weight (FIG. 2 and Table 1) or 2 ml/kg (FIG. 1 and Table 2). […] The enteral administration of insulin strikingly provided a statistically significant improvement in the number of days until gastric residuals reached […] body weight, or <2 ml/kg body weight, relative to control treated infants.

preterm infants [2] = experiment: Singleton study: days until gastric residuals fall, insulin-enriched preterm formula vs placebo; format: in vivo, human; conditions: singletons
Text: as §1, §2, §3, §4, §5
Singletons were examined for number of days until gastric residual measurements reached less than 2 ml/kg body weight (FIG. 3) and until no gastric residuals were emitted (Table 3).

preterm infants [3] = system: preterm infants
Experimental: A Multi-center, two arms, randomized, double-blinded placebo controlled study was conducted to evaluate the effect of insulin-enriched infant formula on preterm infants. The insulin was given within a liquid infant formula with insulin concentration of 400 μU/ml. The study primary goal was to determine whether insulin supplement within the basic preterm oral formula enhances gastric emptying. The gastric emptying was evaluated by the reduction in the amount of gastric residual of the preterm infants.
The infants were randomly assigned to one of two treatment groups: the study product containing insulin as a test group and Placebo supplement as a control group. The parents, the medical team treating the infants and the study monitor were blinded to the treatment arm. From study day 1, the infants in the test group received insulin mixed with the ready to feed (RTF) preterm Materna formula and the control group received a placebo supplement mixed with the same RTF preterm Materna formula.
The insulin composition was used according to study definitions and feeding protocol only. Formula administration was begun at study day 1 and continued throughout the following 28 days or discharge day if achieved prior to day 28. […]

[4] = insulin 400 μU/ml in formula, up to 28 days

Human insulin
Time to reach gastric residuals of less than 2 ml/kg or 0 ml/kg versus control twin (preterm infants [1]; FIG. 1 (p=0.031) and FIG. 2 (p=0.074)): earlier than their control infant twin in most twin pairs
Number of days until gastric residuals reached 0 ml/Kg body weight, Median (preterm infants [1]; [4]): 0.0 days
Number of days until gastric residuals reached < 2 ml/Kg body weight, Median (preterm infants [1]; [4]): 0 days
Number of days until gastric residuals reached < 2 ml/Kg body weight, Average (preterm infants [1]; insulin 400 μU/ml in formula, up to 28 days, P = 0.031 vs control): 3.8 days
Number of days until gastric residuals reached 0 ml/Kg body weight, Average (preterm infants [1]; insulin 400 μU/ml in formula, up to 28 days, P = 0.074 vs control): 4.1 days
Time to reach gastric residuals of less than 2 ml/kg versus control (preterm infants [2]; FIG. 3, P=0.121): earlier than the control
Time to reach no gastric residuals (0 ml/kg) versus control (preterm infants [2]; Table 3, P=0.021): earlier than their control singletons
Number of days until no gastric residuals are emitted, Median (range) (preterm infants [2]; insulin 400 μU/ml in formula, P=0.021 vs control): 0.0 (0-2) days
Number of days until no gastric residuals are emitted, individual infant (preterm infants [2]; treatment infants no. 1-6, insulin 400 μU/ml in formula): 0 days (5×) and 2 days
Deleterious effects resulting from the insulin administration (preterm infants [3]; low birth weight / preterm infants, enteral insulin): No deleterious effects
Effect on blood glucose or insulin levels (preterm infants [3]; orally administered to preterm infants): without affecting the blood glucose or insulin levels
